Experimental data published in patent publication US9512087B2, “Hybrid molecules containing pharmacophores of fluconazole as antifungal agents and their preparation” (Council for Scientific & Industrial Research, priority 2011, dated 2016).
≈ marks a conversion by molar mass, not a printed value.

How the values were obtained:
Test in all cases: Antifungal MIC, broth dilution
[1] = test system: C. krusei ATCC 6258; type: cell-based; conditions: end point 48 hours; for MIC50: Pichia kudriavzevii, ATCC6258, RPMI 1640 with MOPS, read-out: Ck01 MIC50; for Ck01 MIC50: RPMI 1640 with MOPS
[2] = test system: C. tropicalis ATCC 750; type: cell-based; conditions: end point 48 hours; for MIC50: Candida tropicalis, ATCC750, RPMI 1640 with MOPS, read-out: Ct01 MIC50; for Ct01 MIC50: RPMI 1640 with MOPS
[3] = test system: C. neoformans ATCC 34664; type: cell-based; conditions: end point 48 hours; for MIC50: Cryptococcus neoformans, ATCC34664, RPMI 1640 with MOPS, read-out: Cn01 MIC50; for Cn01 MIC50: RPMI 1640 with MOPS
[4] = test system: C. albicans ATCC 24433; type: cell-based, Candida albicans; conditions: end point 48 hours; for MIC80 / MIC50: Candida albicans, ATCC24433, RPMI 1640 with MOPS; for MIC80: read-out: Ca01 A: MIC80; for MIC50: read-out: Ca01 B: MIC50; for Ca01 A: MIC80 / Ca01 B: MIC50: RPMI 1640 with MOPS
Protocol: (§1) The compounds of Formula 1 were tested for antifungal activity against Candida albicans, Aspergillus niger and Fusarium proliferatum. In vitro evaluation of antifungal activity was performed by determining the minimum inhibitory concentration (MIC) following standard methods (CLSI: Reference method for broth dilution antifungal susceptibility testing of yeasts; Approved standard, second edition M27-A2, 2002; CLSI: Reference method for broth dilution antifungal susceptibility testing of filamentous fungi; Approved standard M38-A, 2002). Anti-fungal susceptibility testing of these anti-fungal compounds was done by broth dilution method using RPMI 1640 medium with MOPS buffer. Known anti-fungal agents like fluconazole and amphotericin-B were used as positive control. End points were determined after 48 hours visually and by using spectrophotometer wherever necessary. Different dilutions were tried and various sets of experiments performed. The activity parameters are enumerated in Table 5.

[5] = test system: A. fumigatus ATCC 46645; type: cell-based; conditions: end point 48 hours; for MIC50: Aspergillus fumigatus, ATCC46645, RPMI 1640 with MOPS, read-out: Afm01 MIC50; for Afm01 MIC50: RPMI 1640 with MOPS
[6] = test system: C. glabrata ATCC 90030; type: cell-based; conditions: end point 48 hours; for MIC50: Nakaseomyces glabratus, ATCC90030, RPMI 1640 with MOPS, read-out: Cg01 MIC50; for Cg01 MIC50: RPMI 1640 with MOPS
[7] = test system: A. niger ATCC 16404; type: cell-based, Aspergillus niger; conditions: end point 48 hours; for MIC50: Aspergillus niger, ATCC16404, RPMI 1640 with MOPS, read-out: An01 MIC50; for An01 MIC50: RPMI 1640 with MOPS
Protocol: as §1

[8] = test system: F. proliferatum ATCC 10052; type: cell-based, Fusarium proliferatum; conditions: end point 48 hours; for MIC50: Fusarium proliferatum, ATCC10052, RPMI 1640 with MOPS, read-out: Fp01 MIC50; for Fp01 MIC50: RPMI 1640 with MOPS
Protocol: as §1

Structure (SMILES)	MIC50 [1] [µg/mL]	MIC50 [2] [µg/mL]	MIC50 [3] [µg/mL]	MIC80 [4] [µg/mL]	MIC50 [4] [µg/mL]	MIC50 [5] [µg/mL]	MIC50 [6] [µg/mL]	MIC50 [7] [µg/mL]	MIC50 [8] [µg/mL]	Ck01 MIC50 [1] [µg/mL]	Ct01 MIC50 [2] [µg/mL]	Cn01 MIC50 [3] [µg/mL]	Ca01 A: MIC80 [4] [µg/mL]	Ca01 B: MIC50 [4] [µg/mL]	Afm01 MIC50 [5] [µg/mL]	Cg01 MIC50 [6] [µg/mL]	An01 MIC50 [7] [µg/mL]	Fp01 MIC50 [8] [µg/mL]
COC(COc1ccc(C(=O)/C=C/c2ccc(Cl)cc2Cl)cc1)(Cn1cncn1)c1ccc(F)cc1F (stereo not drawn) [Compound 1A-19, (E)-3-(2,4-dichlorophenyl)-1-(4-(2-(2,4-difluorophenyl)-2-methoxy-3-(1H-1,2,4-triazol-1-yl)propoxy)phenyl)prop-2-en-1-one]	> 4	> 4	> 4	> 4	1 (≈ 1.84 µM)	> 4	1 (≈ 1.84 µM)	> 4	> 4	–	–	–	–	–	–	–	–	–
OC(COc1ccc(C2=NNC(c3ccc(Cl)cc3Cl)C2)cc1)(Cn1cncn1)c1ccc(F)cc1F (stereo not drawn) [Compound 1E-1, 1-(4-(5-(2,4-dichlorophenyl)-4,5-dihydro-1H-pyrazol-3-yl)phenoxy)-2-(2,4-difluorophenyl)-3-(1H-1,2,4-triazol-1-yl)propan-2-ol]	> 8	1 (≈ 1.84 µM)	2 (≈ 3.67 µM)	0.25 (≈ 0.459 µM)	0.25 (≈ 0.459 µM)	> 8	2 (≈ 3.67 µM)	> 8	> 8	–	–	–	–	–	–	–	–	–
CC(=O)/C=C/c1ccc(OCC(O)(Cn2cncn2)c2ccc(F)cc2F)cc1 (stereo not drawn) [Compound 1A-25]	8 (≈ 20 µM)	2 (≈ 5.01 µM)	4 (≈ 10 µM)	0.25 (≈ 0.626 µM)	0.12 (≈ 0.3 µM)	8 (≈ 20 µM)	0.12 (≈ 0.3 µM)	8 (≈ 20 µM)	> 128	–	–	–	–	–	–	–	–	–
CCCCCCCCCCCCCCC(=O)/C=C/c1ccc(OCC(O)(Cn2cncn2)c2ccc(F)cc2F)cc1 (stereo not drawn) [Compound 1A-27]	–	–	–	–	–	–	–	–	–	>1	>1	>1	>1	>1	>1	>1	>1	>1
O=C(/C=C/c1c2ccccc2cc2ccccc12)c1ccc(OCC(O)(Cn2cncn2)c2ccc(F)cc2F)cc1 (stereo not drawn) [Compound 1A-15]	> 2	> 2	2 (≈ 3.56 µM)	> 2	> 2	> 2	2 (≈ 3.56 µM)	> 2	> 2	–	–	–	–	–	–	–	–	–
C[C@@H]1[C@H](O)[C@@H](C)/C=C/C=C/C=C/C=C/C=C/C=C/C=C/[C@H](O[C@@H]2O[C@H](C)[C@@H](O)[C@H](N)[C@@H]2O)C[C@@H]2O[C@](O)(C[C@@H](O)C[C@@H](O)[C@H](O)CC[C@@H](O)C[C@@H](O)CC(=O)O[C@H]1C)C[C@H](O)[C@H]2C(=O)O [AMB, amphotericin-B, reference compound]	–	–	–	–	–	–	–	–	–	0.5	0.5	0.5	0.25	0.25	0.5	0.25	0.25	2
O=C(/C=C/c1ccc(OCC(O)(Cn2cncn2)c2ccc(F)cc2F)cc1)C1CC1 (stereo not drawn) [Compound 1A-28]	–	–	–	–	–	–	–	–	–	1	0.25	2	0.06	0.015	16	0.03	8	>16
O=C(/C=C/c1cccs1)c1ccc(OCC(O)(Cn2cncn2)c2ccc(F)cc2)cc1 (stereo not drawn) [Compound 1A-17]	8 (≈ 17.8 µM)	2 (≈ 4.45 µM)	1 (≈ 2.22 µM)	0.5 (≈ 1.11 µM)	0.25 (≈ 0.556 µM)	> 8	0.25 (≈ 0.556 µM)	> 8	> 8	–	–	–	–	–	–	–	–	–
COc1cc(/C=C/C=O)ccc1OCC(O)(Cn1cncn1)c1ccc(F)cc1F (stereo not drawn) [Compound 1A-29]	32 (≈ 77 µM)	8 (≈ 19.3 µM)	16 (≈ 38.5 µM)	0.5 (≈ 1.2 µM)	0.25 (≈ 0.602 µM)	> 64	1 (≈ 2.41 µM)	> 64	> 64	–	–	–	–	–	–	–	–	–
CCCCCCCCOc1ccc(C(=O)/C=C/c2ccc(OCC(O)(Cn3cncn3)c3ccc(F)cc3F)cc2)cc1 (stereo not drawn) [Compound 1A-24]	–	–	–	–	–	–	–	–	–	>4	>4	>4	8	4	>4	0.12	>4	>4
COc1cc(/C=C/C(=O)c2ccc(OCC(O)(Cn3cncn3)c3ccc(F)cc3F)cc2)cc(OC)c1 (stereo not drawn) [Compound 1A-4]	> 4	2 (≈ 3.83 µM)	2 (≈ 3.83 µM)	1 (≈ 1.92 µM)	0.25 (≈ 0.479 µM)	> 4	2 (≈ 3.83 µM)	> 4	> 4	–	–	–	–	–	–	–	–	–

The remaining compounds from weak to strong by MIC50 [1], led by results:

MIC50 [1] [µg/mL]	MIC50 [2] [µg/mL]	MIC50 [3] [µg/mL]	MIC80 [4] [µg/mL]	MIC50 [4] [µg/mL]	MIC50 [5] [µg/mL]	MIC50 [6] [µg/mL]	MIC50 [7] [µg/mL]	MIC50 [8] [µg/mL]	Ck01 MIC50 [1] [µg/mL]	Ct01 MIC50 [2] [µg/mL]	Cn01 MIC50 [3] [µg/mL]	Ca01 A: MIC80 [4] [µg/mL]	Ca01 B: MIC50 [4] [µg/mL]	Afm01 MIC50 [5] [µg/mL]	Cg01 MIC50 [6] [µg/mL]	An01 MIC50 [7] [µg/mL]	Fp01 MIC50 [8] [µg/mL]	Structure (SMILES)
4 (≈ 8.14 µM)	0.25 (≈ 0.509 µM)	1 (≈ 2.03 µM)	0.12 (≈ 0.244 µM)	0.06 (≈ 0.122 µM)	> 4	0.25 (≈ 0.509 µM)	4 (≈ 8.14 µM)	> 4	–	–	–	–	–	–	–	–	–	COc1ccc(/C=C/C(=O)c2ccc(OCC(O)(Cn3cncn3)c3ccc(F)cc3F)cc2)cc1 (stereo not drawn) [Compound 1A-2]
4 (≈ 8.14 µM)	1 (≈ 2.03 µM)	1 (≈ 2.03 µM)	0.25 (≈ 0.509 µM)	0.12 (≈ 0.244 µM)	8 (≈ 16.3 µM)	0.25 (≈ 0.509 µM)	> 4	> 4	–	–	–	–	–	–	–	–	–	COc1ccc(C(=O)/C=C/c2ccc(OCC(O)(Cn3cncn3)c3ccc(F)cc3F)cc2)cc1 (stereo not drawn) [Compound 1A-20]
4 (≈ 8.07 µM)	2 (≈ 4.03 µM)	2 (≈ 4.03 µM)	2 (≈ 4.03 µM)	1 (≈ 2.02 µM)	> 4	0.5 (≈ 1.01 µM)	> 4	> 4	–	–	–	–	–	–	–	–	–	O=C(/C=C/c1ccc(Cl)cc1)c1ccc(OC[C@@](O)(Cn2cncn2)c2ccc(F)cc2F)cc1 [S-(+)-1A-6, S-(+)-(E)-3-(4-chlorophenyl)-1-(4-(2-(2,4-difluorophenyl)-2-hydroxy-3-(1H-1,2,4-triazol-1-yl)propoxy)phenyl)prop-2-en-1-one]
4 (≈ 8.45 µM)	4 (≈ 8.45 µM)	0.5 (≈ 1.06 µM)	2 (≈ 4.22 µM)	0.25 (≈ 0.528 µM)	> 4	0.5 (≈ 1.06 µM)	> 4	> 4	–	–	–	–	–	–	–	–	–	COc1ccc(/C=C/C(=O)c2ccc(OCC(O)(Cn3cncn3)c3ccc(F)cc3)cc2)cc1 (stereo not drawn) [Compound 1A-10]
4 (≈ 8.34 µM)	0.5 (≈ 1.04 µM)	2 (≈ 4.17 µM)	0.12 (≈ 0.25 µM)	0.12 (≈ 0.25 µM)	> 4	0.25 (≈ 0.521 µM)	> 4	> 4	–	–	–	–	–	–	–	–	–	O=C(/C=C/c1ccccc1F)c1ccc(OCC(O)(Cn2cncn2)c2ccc(F)cc2F)cc1 (stereo not drawn) [Compound 1A-8]
2 (≈ 4.07 µM)	0.25 (≈ 0.509 µM)	0.5 (≈ 1.02 µM)	0.12 (≈ 0.244 µM)	0.06 (≈ 0.122 µM)	> 4	0.06 (≈ 0.122 µM)	2 (≈ 4.07 µM)	> 4	–	–	–	–	–	–	–	–	–	COc1ccc(/C=C/C(=O)c2ccc(OC[C@](O)(Cn3cncn3)c3ccc(F)cc3F)cc2)cc1 [R-(−)-1A-2]
2 (≈ 3.77 µM)	1 (≈ 1.89 µM)	1 (≈ 1.89 µM)	0.25 (≈ 0.471 µM)	0.12 (≈ 0.226 µM)	> 4	0.5 (≈ 0.943 µM)	> 4	> 4	–	–	–	–	–	–	–	–	–	O=C(/C=C/c1ccc(OCC(O)(Cn2cncn2)c2ccc(F)cc2F)cc1)c1ccc(Cl)cc1Cl (stereo not drawn) [Compound 1A-22]
2 (≈ 3.83 µM)	0.5 (≈ 0.959 µM)	1 (≈ 1.92 µM)	0.5 (≈ 0.959 µM)	0.5 (≈ 0.959 µM)	> 4	1 (≈ 1.92 µM)	> 4	> 4	–	–	–	–	–	–	–	–	–	COc1ccc(C(=O)/C=C/c2ccc(OCC(O)(Cn3cncn3)c3ccc(F)cc3F)c(OC)c2)cc1 (stereo not drawn) [Compound 1A-23]
1 (≈ 2.02 µM)	0.5 (≈ 1.01 µM)	0.25 (≈ 0.504 µM)	0.12 (≈ 0.242 µM)	0.06 (≈ 0.121 µM)	> 4	0.12 (≈ 0.242 µM)	> 4	> 4	–	–	–	–	–	–	–	–	–	O=C(/C=C/c1ccc(Cl)cc1)c1ccc(OC[C@](O)(Cn2cncn2)c2ccc(F)cc2F)cc1 [R-(−)-1A-6, R-(−)-(E)-3-(4-chlorophenyl)-1-(4-(2-(2,4-difluorophenyl)-2-hydroxy-3-(1H-1,2,4-triazol-1-yl)propoxy)phenyl)prop-2-en-1-one]
